Data reported in paper PMC6984391, “Anion carriers as potential treatments for cystic fibrosis: transport in cystic fibrosis cells, and additivity to channel-targeting drugs” (Chemical Science, 2019).

Experiments:
YFP-FRT cells = assay: Persistence of anion transport by fluorescence microscopy in YFP-FRT cells; type: cell-based, Fischer rat; details: 10 μM, continuous perfusion
Protocol: the PBS bathing cells 10 minutes prior to PBS iodide addition, whereas UTP was added to cells with the PBS iodide solution. Fluorescence was measured for 14 seconds; 2 seconds before and 12 seconds after injection of 110 µl PBS iodide solution (137 mM Cl- replaced by I-) into each well (to obtain a final concentration of I- of 100 mM).
We expressed cell fluorescence values (F) relative to the fluorescence value immediately before I- injection (F0), excluding the initial decrease, which likely represents the quenching of extracellular YFP released from cells and signal reduction accompanying the increase in solution volume bathing cells. To quantify anion transport by test anionophores, we determined the initial slope of the fluorescence decay following I - addition by fitting first order exponential functions to the last 12 seconds of each fluorescence recording. […]
fluorescence microscopy as described previously.10 In brief, YFP-FRT cells were washed 3x with PBS before transfer to a perfusion chamber mounted on the stage of a Leica DM IRB microscope. […] Any anionophore not incorporated into YFP-FRT cell membranes was removed from the chamber by perfusion with PBS when fluorescence measurements commenced. […]
Fluorescence data from 5 – 9 cells per coverslip were analysed with 4 coverslips tested for each anionophore. […]

[1] = Affinity to Cl- by 1H NMR titration with Bu4N+Cl- in DMSO-d6/H2O (200:1); type: binding; details: 1H NMR titration with Bu4N^+Cl^– in DMSO-d6/H2O (200 : 1) at 298 K; new compound
Protocol: The binding constant to chloride was assessed using 1H NMR titrations with n-Bu4N+Cl- in DMSO-d6/H2O (200:1). The hygroscopic guest n-Bu4N+Cl- and the host compounds were dried under high vacuum to remove residual solvents or water prior to solution preparation. The concentration of the host was around 1 mM in all titrations; the concentration of guest and the volumes of the aliquots of guest solution added to the host solution were varied o ver the experiments. The guest solutions contained the same concentrations of host as the starting host solution (i.e., n-Bu4N+Cl- was dissolved in a solution of ~1 mM host in DMSO-d6/H2O (200:1)), […]
NMR titration binding studies were performed using a Varian 500b NMR spectrometer at 298
K. The shift of both NH signals in DMSO were fitted to 1:1 binding model using a least -squares fitting procedure in a custom -made Excel spreadsheet .
Figure S6. Downfield region of the 1H NMR spectra from the titration of tetrabutylammonium chloride into 12 […]
(1 picture or pasted object on this page, not shown here)

[2] = set-up: method as in ref [20], [23] (Reference column); details: extraction of Et4N^+Cl^– from water into chloroform at 303 K; ref [20], [23]; cited from earlier work
[3] = set-up: method as in ref [20], [21], [23], [24], [29] (Reference column); details: transporter preincorporated in LUVs (70% POPC + 30% cholesterol), 25 mM NaCl gradient, 225 mM NaNO3; ref [20], [21], [23], [24], [29]; cited from earlier work

CCOC(=O)[C@]12CC[C@@H](NC(=S)Nc3ccc([N+](=O)[O-])cc3)C[C@@H]1C[C@@H](NC(=S)Nc1ccc([N+](=O)[O-])cc1)CC2 [Compound 12]
duration of anion transport after anionophore delivery (YFP-FRT cells): up to 2 h
K a to Cl^– in DMSO [1]: 1.7 × 10^3 M^–1

CCOC(=O)[C@]12CC[C@@H](NC(=S)Nc3cc(C(F)(F)F)cc(C(F)(F)F)c3)C[C@@H]1C[C@@H](NC(=S)Nc1cc(C(F)(F)F)cc(C(F)(F)F)c1)CC2 [Compound 15]
K a to Cl^– in CHCl3 [2]: 4.7 × 10^8 M^–1
Specific initial rate [I] [3]: 2600 s^–1
